In data set [1] the test system is Mus musculus. In words: Time of peak effect in mice following i.p. administration. Type of data set: functional.
Data set [2] deals with Mus musculus. In words: The compound was tested for anticonvulsant activity in Maximal electroshock seizure test (MES) for 4 hr in mice(ip); no activity or toxicity at 300 mg/kg. Type of data set: functional, organism-based. The arrangement: dose 300 mg/kg.
Data set [3] relates to Mus musculus. In words: Anticonvulsant activity in Maximal electroshock seizure test at 100 mg/kg i.p. in mice. Type of data set: functional, organism-based. The arrangement: dose 100 mg/kg. Background: In the maximal electroshock model the usual endpoint is tonic extension of the hind limbs.
For data set [4], the system named is Mus musculus. In words: The compound was tested to inhibit 50% of induced maximal electroshock seizure in mice on ip administration. Type of data set: functional.
The test system of data set [5] is Mus musculus. In words: Inhibition of s.c. pentylenetetrazole induced seizure in mice following i.p. administration. Type of data set: functional.
For data set [6], the system named is Mus musculus. In words: (§1) The compound was determined for the dose (mg/kg) by rotarod test at the time of peak neurotoxic effect in mice on ip administration. The format is functional.
In data set [7] the test system is Mus musculus. In words: The compound was tested for anticonvulsant activity in subcutaneous pentylenetetrazole seizure test (sc Met) for 30 min in mice; active at 300 mg/kg. Type of data set: functional, organism-based. The arrangement: dose 300 mg/kg.
Data set [8] concerns Mus musculus. In words: The anticonvulsant activity in subcutaneous pentylenetetrazole seizure test (sc Met) for 4 hr in mice; no activity or no toxicity at 300 mg/kg. Type of data set: functional, organism-based. The arrangement: dose 300 mg/kg.
Data set [9] can be described thus: (§2) The compound was tested for neurologic toxicity (rotarod) test for 30 min in mice; active at 100 mg/kg. The format is organism-based. The arrangement: dose 100 mg/kg. The following applies: mouse, in vivo, 0.5 h. On the technique in general: The rotarod test checks motor coordination on a turning rod.
Data set [10] in a line: The compound was tested for time of peak effect (TPE) in hours for its toxicity in mice on ip administration. Type of data set: organism-based. As to conditions: mouse, in vivo.
Data set [11] is described as follows: The compound was tested for neurologic toxicity (rotarod) test for 4 hours in mice; no activity or no toxicity at 300 mg/kg. The format is organism-based. Set-up: dose 300 mg/kg. The following applies: mouse, in vivo.
Data set [12] has as its system Mus musculus. In words: The compound was tested for anticonvulsant activity in Maximal electroshock seizure test (MES) for 4 hr in mice(ip); active at 300 mg/kg. Type of data set: functional, organism-based. The arrangement: dose 300 mg/kg.
For data set [13], the system named is Mus musculus. In words: (§3) The compound was tested for neurologic toxicity (rotarod) test for 4 hours in mice; active at 300 mg/kg. The format is functional, organism-based. The arrangement: dose 300 mg/kg.
For data set [14], the system named is Mus musculus. The data set is described as §2. Type of data set: functional, organism-based. The arrangement: dose 100 mg/kg.
The test system of data set [15] is Mus musculus. In words: The compound was tested for anticonvulsant activity in subcutaneous pentylenetetrazole seizure test (sc Met) for 30 min in mice; active at 100 mg/kg. Type of data set: functional, organism-based. Set-up: dose 100 mg/kg.
Data set [16] relates to Mus musculus. In words: The compound was tested for anticonvulsant activity in subcutaneous pentylenetetrazole seizure test (sc Met) for 4 hr in mice; active at 300 mg/kg. The format is functional, organism-based. Set-up: dose 300 mg/kg.
The test system of data set [17] is Rattus norvegicus. In words: The compound was tested for the effective oral dose to inhibit 50% of the anticonvulsant in rats. The format is functional.
Data set [18] relates to Mus musculus. In words: The compound was tested for anticonvulsant activity in Maximal electroshock seizure test (MES) for 4 hr in mice(ip); active at 100 mg/kg. Set-up: dose 100 mg/kg. The format is functional, organism-based.
The species named for data set [19] is Mus musculus. In words: Protective index value is the ratio between TD50 and ED50 values. Type of data set: functional.
The test system of data set [20] is Rattus norvegicus. In words: The compound was tested for the effective oral dose to inhibit 50% of the anticonvulsant in rats. Type of data set: functional.
In data set [21] the test system is Rattus norvegicus. In words: The compound was tested for the toxic dose on oral administration. Type of data set: functional.
The species entered for data set [22] is Rattus norvegicus. In words: Protective index value is the ratio between ED50 and TD50. The format is functional.
The nature of data set [23]: as §1. The following applies: mouse, in vivo. The format is ADME, organism-based.
Data set [24] can be described thus: as §3. The following applies: mouse, in vivo. The arrangement: dose 300 mg/kg. Type of data set: organism-based.
Data set [25] relates to Mus musculus. In words: The compound was tested to inhibit 50% of induced maximal electroshock seizure in mice on ip administration. The format is functional.
Data set [26] concerns Mus musculus. In words: The compound was tested to inhibit 50% of induced subcutaneous pentylenetetrazole seizure in mice on ip administration. Type of data set: functional.
In data set [27] the test system is Mus musculus. In words: The compound was determined for the dose (mg/kg) by rotarod test at the time of peak neurotoxic effect in mice on ip administration. Type of data set: functional.
In data set [28] the test system is Mus musculus. In words: The compound was tested for anticonvulsant activity in Maximal electroshock seizure test for 30 min in mice(ip); active at 300 mg/kg. Type of data set: functional, organism-based. The arrangement: dose 300 mg/kg.
Data set [29] deals with Mus musculus. In words: Anticonvulsant activity in subcutaneous pentylenetetrazole seizure test for 30 min in mice; No activity/toxicity at 300 mg/kg. The arrangement: dose 300 mg/kg. The format is functional, organism-based.
A short description of data set [30]: The compound was tested for neurologic toxicity (rotarod) test for 30 min in mice; no activity or no toxicity at 300 mg/kg. Type of data set: organism-based. The arrangement: dose 300 mg/kg. As to conditions: mouse, in vivo, 0.5 h.

Each structure is given as a SMILES string. Where “and” joins values, the source holds several entries; their conditions need not be identical. Equal values may be shown once. Calls of active or inactive are those of the source. The calls are words filed in the database; no cut-off is given here.

For orientation: ED50 means the dose that gives a 50% effect, or the effect in half of the subjects. A low value points to an effect at a small dose. As a reminder, the TD50 is the dose at which the toxic effect under study appears in half of the subjects. A low value points to greater toxicity. On to `CCC(=O)c1ccc2c(c1)sc(=O)n2CCN1CCOCC1`, for which the Activity in the data set on Mus musculus [1] was 0.25 h. Moreover, the MES result in the data set with Mus musculus [2] and with Mus musculus [3] was “No activity or toxicity at 300 mg/kg” in each case. The ED50 with Mus musculus [4] is 62.1 mg/kg; with Mus musculus [5], above 300 mg/kg. In the data set with Mus musculus [6], this compound yielded a TD50 of 239 mg/kg. For the same compound, the scMet result in the data set with Mus musculus [7] and in the data set with Mus musculus [8] was “active at 300 mg/kg” each time. Besides, the Rotarod toxicity result in data set [9] and in data set [11] was “active at 100 mg/kg” in each case. Also, the Toxicity in [10] was found to be 0.25 h.

As for `O=c1[nH]c2ccccc2s1`, the MES entry in the data set with Mus musculus [12] and in the data set on Mus musculus [3] was “active at 300 mg/kg” throughout. For the same compound, the Rotarod toxicity entry in the data set on Mus musculus [13] and in the data set with Mus musculus [14] was “active at 100 mg/kg” in each case. Besides, the scMet result with Mus musculus [15] and with Mus musculus [16] was “active at 100 mg/kg” throughout.

As for `NC(=O)N1c2ccccc2C=Cc2ccccc21` [CARBAMAZEPINE], the ED50 was 8.8 mg/kg in the data set with Mus musculus [4], above 100 mg/kg with Mus musculus [5] and 8.5 mg/kg in the data set on Rattus norvegicus [17].

For `Oc1nc2ccc(Cc3ccc(F)cc3)cc2o1`, the Activity with Mus musculus [1] was 1 h. The MES entry in the data set with Mus musculus [3] and with Mus musculus [18] was “active at 100 mg/kg” each time. Also, the ED50 in the data set with Mus musculus [4] was 125 mg/kg; in the data set with Mus musculus [5], 218 mg/kg; in the data set with Rattus norvegicus [20], 11.9 mg/kg. The PI is 2.8 and 1.6 in the data set filed under Mus musculus [19]; 18.5 in the data set listed under Rattus norvegicus [22]. Further, the scMet result in the data set with Mus musculus [15] and with Mus musculus [16] was “active at 100 mg/kg” throughout. In addition, the TD50 in the data set on Rattus norvegicus [21] was above 220 mg/kg; in data set [23], 356 mg/kg. For the same compound, the Rotarod toxicity entry in data set [9] and in [24] was “active at 100 mg/kg” throughout. Besides, in data set [10], the Toxicity was determined as 1 h.

With `CCC1(c2ccccc2)C(=O)NC(=O)NC1=O` [PHENOBARBITAL], the ED50 in the data set with Mus musculus [25] came to 21.8 mg/kg; in the data set on Mus musculus [26], 13.2 mg/kg. In addition, the TD50 in the data set with Mus musculus [27] is 69 mg/kg.

With `CCC(=O)c1ccc2nc(O)oc2c1`, the MES entry in the data set on Mus musculus [28] and in the data set with Mus musculus [2] was “active at 300 mg/kg” in each case. Also, the scMet result in the data set with Mus musculus [29] and with Mus musculus [8] was “No activity or no toxicity at 300 mg/kg” throughout. The Rotarod toxicity entry in data set [30] and in [11] was “No activity or no toxicity at 300 mg/kg” in each case.

The values above are taken from ChEMBL document CHEMBL1131315, “Synthesis and anticonvulsant activity of 2(3H)-benzoxazolone and 2(3H)-benzothiazolone derivatives” (J Med Chem, 1998).
